From patent US20110086759A1, “CHEMICAL COMPOUNDS” (SYNGENTA CROP PROTECTION, INC., priority 2007, published 2011)

Tests used:
Format in all cases: in vivo
[1] = tested on: Echinochloa crus-galli (ECHCG); assay: Pre-emergence biological efficacy, glasshouse pot test; conditions: 312 h
Outline: (§1)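 Scores on a 0–100 damage scale were taken 13 days after spraying. Application rate 1000 or 250 g/ha, one day after sowing, in acetone/water-based aqueous spray containing 0.5% Tween 20.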

[2] = tested on: Alopecurus myosuroides (ALOMY); assay: as above; conditions: 312 h
Outline: as §1

[3] = tested on: Amaranthus retoflexus (AMARE); assay: as above; conditions: Amaranthus retroflexus, 312 h
Outline: as §1

[4] = tested on: Ipomea hederaceae (IPOHE); assay: as above; conditions: Ipomoea hederacea, 312 h
Outline: as §1

[5] = tested on: Solanum nigrum (SOLNI); assay: as above; conditions: 312 h
Outline: as §1

[6] = tested on: Setaria faberi (SETFA); assay: as above; conditions: 312 h
Outline: as §1

[7] = tested on: Echinochloa crus-galli (ECHCG); assay: Post-emergence biological efficacy, glasshouse pot test; conditions: 312 h
Outline: (§2)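 Scored 13 days after spraying on a 0 (no damage) to 100 (total damage) scale. Treatment was a post-emergence spray at 1000 or 250 g/ha, from acetone/water 50:50 plus 0.5% Tween 20, onto 8-day-old plants in soil pots. Growth at 24/16° C, 14 h photoperiod, 65% humidity, watered twice daily.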

[8] = tested on: Alopecurus myosuroides (ALOMY); assay: as above; conditions: 312 h
Outline: as §2

[9] = tested on: Amaranthus retoflexus (AMARE); assay: as above; conditions: Amaranthus retroflexus, 312 h
Outline: as §2

[10] = tested on: Ipomea hederaceae (IPOHE); assay: as above; conditions: Ipomoea hederacea, 312 h
Outline: as §2

[11] = tested on: Solanum nigrum (SOLNI); assay: as above; conditions: 312 h
Outline: as §2

[12] = tested on: Setaria faberi (SETFA); assay: as above; conditions: 312 h
Outline: as §2

[13] = pre-emergence, rate 1,000 g/ha, evaluated after 13 days (100=total damage to plant; 0=no damage), read-out: Percentage damage caused to weed species, ECHCG
[14] = pre-emergence, rate 1,000 g/ha, evaluated after 13 days (100=total damage to plant; 0=no damage), read-out: Percentage damage caused to weed species, ALOMY
[15] = pre-emergence, rate 1,000 g/ha, evaluated after 13 days (100=total damage to plant; 0=no damage), read-out: Percentage damage caused to weed species, AMARE
[16] = pre-emergence, rate 1,000 g/ha, evaluated after 13 days (100=total damage to plant; 0=no damage), read-out: Percentage damage caused to weed species, IPOHE
[17] = pre-emergence, rate 1,000 g/ha, evaluated after 13 days (100=total damage to plant; 0=no damage), read-out: Percentage damage caused to weed species, SOLNI
[18] = pre-emergence, rate 1,000 g/ha, evaluated after 13 days (100=total damage to plant; 0=no damage), read-out: Percentage damage caused to weed species, SETFA
[19] = Rate 1,000 g/ha, post-emergence spray, evaluated after 13 days (100=total damage to plant; 0=no damage to plant), read-out: Percentage damage caused to weed species, post-emergence, ECHCG
[20] = Rate 1,000 g/ha, post-emergence spray, evaluated after 13 days (100=total damage to plant; 0=no damage to plant), read-out: Percentage damage caused to weed species, post-emergence, ALOMY
[21] = Rate 1,000 g/ha, post-emergence spray, evaluated after 13 days (100=total damage to plant; 0=no damage to plant), read-out: Percentage damage caused to weed species, post-emergence, AMARE
[22] = Rate 1,000 g/ha, post-emergence spray, evaluated after 13 days (100=total damage to plant; 0=no damage to plant), read-out: Percentage damage caused to weed species, post-emergence, IPOHE
[23] = Rate 1,000 g/ha, post-emergence spray, evaluated after 13 days (100=total damage to plant; 0=no damage to plant), read-out: Percentage damage caused to weed species, post-emergence, SOLNI
[24] = Rate 1,000 g/ha, post-emergence spray, evaluated after 13 days (100=total damage to plant; 0=no damage to plant), read-out: Percentage damage caused to weed species, post-emergence, SETFA
[25] = pre-emergence, 1,000 g/ha, evaluated after 13 days (100=total damage; 0=no damage), read-out: Percentage damage ECHCG
[26] = pre-emergence, 1,000 g/ha, evaluated after 13 days (100=total damage; 0=no damage), read-out: Percentage damage ALOMY
[27] = pre-emergence, 1,000 g/ha, evaluated after 13 days (100=total damage; 0=no damage), read-out: Percentage damage AMARE
[28] = pre-emergence, 1,000 g/ha, evaluated after 13 days (100=total damage; 0=no damage), read-out: Percentage damage IPOHE
[29] = pre-emergence, 1,000 g/ha, evaluated after 13 days (100=total damage; 0=no damage), read-out: Percentage damage SOLNI
[30] = pre-emergence, 1,000 g/ha, evaluated after 13 days (100=total damage; 0=no damage), read-out: Percentage damage SETFA
[31] = post-emergence, 1,000 g/ha, evaluated after 13 days (100=total damage; 0=no damage), read-out: Percentage damage caused to weed species, ECHCG
[32] = post-emergence, 1,000 g/ha, evaluated after 13 days (100=total damage; 0=no damage), read-out: Percentage damage caused to weed species, ALOMY
[33] = post-emergence, 1,000 g/ha, evaluated after 13 days (100=total damage; 0=no damage), read-out: Percentage damage caused to weed species, AMARE
[34] = post-emergence, 1,000 g/ha, evaluated after 13 days (100=total damage; 0=no damage), read-out: Percentage damage caused to weed species, IPOHE
[35] = post-emergence, 1,000 g/ha, evaluated after 13 days (100=total damage; 0=no damage), read-out: Percentage damage caused to weed species, SOLNI
[36] = post-emergence, 1,000 g/ha, evaluated after 13 days (100=total damage; 0=no damage), read-out: Percentage damage caused to weed species, SETFA

Structure (SMILES): CCCN(Cc1ccc(C)cc1)c1nc(C2CC2)nc(C(=O)OC)c1Cl [Compound 145-73, 5-Chloro-2-cyclopropyl-6-methoxycarbonyl-4-[N-(4-methyl-phenylmethyl)-N-prop-1-yl-amino]-pyrimidine]
- pest or weed control at 1000 g/ha [1, 13]: 30%
- pest or weed control at 1000 g/ha [2, 14]: 30%
- pest or weed control at 1000 g/ha [3, 15]: 100%
- pest or weed control at 1000 g/ha [4, 16]: 20%
- pest or weed control at 1000 g/ha [5, 17]: 70%
- pest or weed control at 1000 g/ha [6, 18]: 20%
- pest or weed control at 1000 g/ha [7, 19]: 20%
- pest or weed control at 1000 g/ha [8, 20]: 10%
- pest or weed control at 1000 g/ha [9, 21]: 80%
- pest or weed control at 1000 g/ha [10, 22]: 70%
- pest or weed control at 1000 g/ha [11, 23]: 50%
- pest or weed control at 1000 g/ha [12, 24]: 40%

Structure (SMILES): COC(=O)c1nc(-c2ccc(OC)cc2OC)nc(NCc2ccco2)c1Cl [Compound 252-48, 5-Chloro-2-(2,4-dimethoxyphenyl)-4-(furan-2-yl-methyl-amino)-6-methoxy-carbonylpyrimidine]
- pest or weed control at 1000 g/ha [1, 13]: 0%
- pest or weed control at 1000 g/ha [2, 14]: 0%
- pest or weed control at 1000 g/ha [3, 15]: 0%
- pest or weed control at 1000 g/ha [4, 16]: 0%
- pest or weed control at 1000 g/ha [5, 17]: 0%
- pest or weed control at 1000 g/ha [6, 18]: 20%
- pest or weed control at 1000 g/ha [7, 19]: 0%
- pest or weed control at 1000 g/ha [8, 20]: 0%
- pest or weed control at 1000 g/ha [9, 21]: 30%
- pest or weed control at 1000 g/ha [10, 22]: 30%
- pest or weed control at 1000 g/ha [11, 23]: 20%
- pest or weed control at 1000 g/ha [12, 24]: 0%

Structure (SMILES): COC(=O)c1nc(C2CC2)nc(NCC(C)c2ccccc2)c1Cl (stereo not drawn) [Compound 4-232, 5-Chloro-2-cyclopropyl-6-methoxycarbonyl-4-[2-(phenyl)propyl-amino]-pyrimidine]
- pest or weed control at 1000 g/ha [1, 25]: 30%
- pest or weed control at 1000 g/ha [2, 26]: 10%
- pest or weed control at 1000 g/ha [3, 27]: 90%
- pest or weed control at 1000 g/ha [4, 28]: 50%
- pest or weed control at 1000 g/ha [5, 29]: 80%
- pest or weed control at 1000 g/ha [6, 30]: 30%
- pest or weed control at 1000 g/ha [7, 31]: 30%
- pest or weed control at 1000 g/ha [8, 32]: 20%
- pest or weed control at 1000 g/ha [9, 33]: 100%
- pest or weed control at 1000 g/ha [10, 34]: 100%
- pest or weed control at 1000 g/ha [11, 35]: 70%
- pest or weed control at 1000 g/ha [12, 36]: 50%

Structure (SMILES): COC(=O)c1nc(C2CC2)nc(N[C@H](CO)[C@H](O)c2ccc([N+](=O)[O-])cc2)c1Cl [4-275 (R,R), 5-Chloro-2-cyclopropyl-4-[(1R, 2R)-2-hydroxy-1-hydroxymethyl-2-(4-nitrophenyl)-ethylamino]-6-methoxycarbonyl-pyrimidine]
- pest or weed control at 1000 g/ha [1, 25]: 60%
- pest or weed control at 1000 g/ha [2, 26]: 70%
- pest or weed control at 1000 g/ha [3, 27]: 100%
- pest or weed control at 1000 g/ha [4, 28]: 100%
- pest or weed control at 1000 g/ha [5, 29]: 90%
- pest or weed control at 1000 g/ha [6, 30]: 70%
- pest or weed control at 1000 g/ha [7, 31]: 70%
- pest or weed control at 1000 g/ha [8, 32]: 30%
- pest or weed control at 1000 g/ha [9, 33]: 100%
- pest or weed control at 1000 g/ha [10, 34]: 100%
- pest or weed control at 1000 g/ha [11, 35]: 100%
- pest or weed control at 1000 g/ha [12, 36]: 80%
